# Results reported in patent publication EP4643858A1, “METHODS AND PHARMACEUTICAL COMPOSITION FOR THE TREATMENT OF UTERINE DISEASE” (Institut National de la Santé et de la Recherche Médicale, priority 2024, dated 2025).
# How the values were obtained:
# P-AKTSer473 [1] = assay: Patient tissues (healthy endometrium, adenomyosis or endometriosis lesions) treated in vitro, Western blot of P-AKT; assay type: cell-based, human; settings: healthy endometrium and lesions of adenomyosis or endometriosis from patients, exposed in vitro during 24 hours to different doses; Western blot P-AKTSer473 (Figure 3B)
# Description: (§1) Tissues were crushed and then lysed in RIPA lysis buffer supplemented with phosphatase and protease inhibitors. Protein concentrations were determined through the bicinchoninic acid method (Pierce). Protein extracts were analyzed by Western blot where the transfer membrane was incubated with a primary antibody followed by the appropriate peroxidase-conjugated secondary antibody (dilution 1:10,000). Chemiluminescence were acquired using a Chemidoc MP and bands were quantitated with the Image Lab Software (Bio-Rad Laboratories).
# as §1, with “Tissues collected from patients (endometrium, adenomyosis, endometriosis and myoma). Tissues were cultivated in media and treated during 24 hours with either DMSO, alpelisib or ST420 (Compound having formula I and/or its derivatives). Then, they” for “Tissues”, “and” for “and then”
# PIK3CA pharmacological inhibitors are developed for oncology and other medical situations. […]
# P-AKTSer473 [2] = assay: Patient myometrium and myoma samples treated in vitro, Western blot of P-AKT; assay type: cell-based, human; settings: myometrium and myoma samples from patients treated in vitro 24 hours at different doses; Western blot P-AKTSer473 (Figure 4)
# Description: as §1
# as §1, with “Tissues collected from patients (endometrium, adenomyosis, endometriosis and myoma). Tissues were cultivated in media and treated during 24 hours with either DMSO, alpelisib or ST420 (Compound having formula I and/or its derivatives). Then, they” for “Tissues”, “and” for “and then”, “Laboratories). […]” for “Laboratories).”
# [3] = patients treated with alpelisib; cited from earlier work
smiles,measurement,setting,value
Cc1nc(NC(=O)N2CCC[C@H]2C(N)=O)sc1-c1ccnc(C(C)(C)C(F)(F)F)c1 [alpelisib],phosphorylation of AKT,P-AKTSer473 [1],able to shut down the phosphorylation of AKT
same,inhibition of the PIK3CA pathway in myoma,P-AKTSer473 [2],able to inhibit the pathway in myoma
same,"insulin resistance which can lead to diabetes, share of patients",[3],about 30%
